# Test system: MV-4-11 cells
# Assay: Gene expression microarray analysis (Affymetrix PrimeView) and GSEA
# Type: cell-based, human
# Set-up: RFU PODN (11730768_x_at) / Fold change /veh PODN (11730768_x_at) / RFU LINC00158 (11744669_a_at) / Fold change /veh LINC00158 (11744669_a_at) / RFU DUSP10 (11751237_a_at) / Fold change /veh DUSP10 (11751237_a_at) / RFU ID3 (11757404_x_at) / Fold change /veh ID3 (11757404_x_at) / RFU PLEKHG5 (11737974_s_at) / Fold change /veh PLEKHG5 (11737974_s_at) / RFU LRRC4B (11730491_at) / Fold change /veh LRRC4B (11730491_at) / RFU GIMAP4 (11747438_a_at) / Fold change /veh GIMAP4 (11747438_a_at) / RFU KRT8 (11758183_x_at) / Fold change /veh KRT8 (11758183_x_at) / RFU CNN1 (11734310_a_at) / Fold change /veh CNN1 (11734310_a_at) / RFU VPS37D (11726825_at) / Fold change /veh VPS37D (11726825_at) / RFU C10orf10 (11716522_x_at) / Fold change /veh C10orf10 (11716522_x_at) / RFU KIR2DL2 /// KIR2DL4 /// KIR2DL5A /// KIR2DL5B /// KIR2DS1 /// KIR2DS2 /// KIR2DS3 /// KIR2DS4 /// KIR3DL3 /// KIR3DL3 /// KIR3DS1 (11738374_at) / Fold change /veh KIR2DL2 /// KIR2DL4 /// KIR2DL5A /// KIR2DL5B /// KIR2DS1 /// KIR2DS2 /// KIR2DS3 /// KIR2DS4 /// KIR3DL3 /// KIR3DL3 /// KIR3DS1 (11738374_at) / RFU C1QL1 (11718748_at) / Fold change /veh C1QL1 (11718748_at) / RFU TMPRSS4 (11747572_a_at) / Fold change /veh TMPRSS4 (11747572_a_at) / RFU HAMP (11756126_x_at) / Fold change /veh HAMP (11756126_x_at) / RFU RNFT2 (11725882_a_at) / Fold change /veh RNFT2 (11725882_a_at) / RFU NR4A2 (11747474_a_at) / Fold change /veh NR4A2 (11747474_a_at) / RFU ABCC12 (11746883_a_at) / Fold change /veh ABCC12 (11746883_a_at) / RFU TMEM136 (11760407_x_at) / Fold change /veh TMEM136 (11760407_x_at) / RFU CLDN22 /// WWC2 (11732394_at) / Fold change /veh CLDN22 /// WWC2 (11732394_at) / RFU HLA-DPB1 (11760878_x_at) / Fold change /veh HLA-DPB1 (11760878_x_at) / RFU SPINT1 (11716480_a_at) / Fold change /veh SPINT1 (11716480_a_at) / RFU GAP43 (11754022_s_at) / Fold change /veh GAP43 (11754022_s_at) / RFU A4GNT (11735810_at) / Fold change /veh A4GNT (11735810_at) / RFU PRB3 (11715151_x_at) / Fold change /veh PRB3 (11715151_x_at) / RFU TUBB4B (11761932_at) / Fold change /veh TUBB4B (11761932_at) / RFU CAPN14 (11732068_a_at) / Fold change /veh CAPN14 (11732068_a_at) / RFU TMCC2 (11721928_a_at) / Fold change /veh TMCC2 (11721928_a_at) / RFU IRGQ (11745062_a_at) / Fold change /veh IRGQ (11745062_a_at) / RFU FAM174B (11720279_a_at) / Fold change /veh FAM174B (11720279_a_at) / RFU TMPRSS4 (11748680_a_at) / Fold change /veh TMPRSS4 (11748680_a_at) / RFU FAM212B (11763350_a_at) / Fold change /veh FAM212B (11763350_a_at) / RFU PLEKHG5 (11743358_a_at) / Fold change /veh PLEKHG5 (11743358_a_at) / RFU ZSCAN30 (11745921_a_at) / Fold change /veh ZSCAN30 (11745921_a_at) / RFU CMKLR1 (11741424_a_at) / Fold change /veh CMKLR1 (11741424_a_at) / RFU LOC101060620 /// MAPK8IP1 (11723275_at) / Fold change /veh LOC101060620 /// MAPK8IP1 (11723275_at) / RFU SPTSSB (11747773_x_at) / Fold change /veh SPTSSB (11747773_x_at) / RFU PRSS12 (11739890_at) / Fold change /veh PRSS12 (11739890_at) / RFU BIN1 (11741810_x_at) / Fold change /veh BIN1 (11741810_x_at) / RFU WNT11 (11732464_a_at) / Fold change /veh WNT11 (11732464_a_at) / RFU C10orf10 (11716521_a_at) / Fold change /veh C10orf10 (11716521_a_at) / RFU C5orf56 (11738089_at) / Fold change /veh C5orf56 (11738089_at) / RFU CYB561 (11721691_x_at) / Fold change /veh CYB561 (11721691_x_at) / RFU ANKRD19P (11752326_a_at) / Fold change /veh ANKRD19P (11752326_a_at) / RFU OR2T12 /// OR2T33 /// OR2T8 (11738714_s_at) / Fold change /veh OR2T12 /// OR2T33 /// OR2T8 (11738714_s_at) / RFU VCAN (11748164_a_at) / Fold change /veh VCAN (11748164_a_at) / RFU JSRP1 (11732532_at) / Fold change /veh JSRP1 (11732532_at) / RFU KRTAP10-11 (11738290_x_at) / Fold change /veh KRTAP10-11 (11738290_x_at) / RFU MYO3A (11730013_a_at) / Fold change /veh MYO3A (11730013_a_at) / RFU EBF3 (11725865_a_at) / Fold change /veh EBF3 (11725865_a_at) / RFU CAMK2N1 (11719241_x_at) / Fold change /veh CAMK2N1 (11719241_x_at) / RFU C5orf56 (11738088_a_at) / Fold change /veh C5orf56 (11738088_a_at) / RFU OLFML3 (11715873_a_at) / Fold change /veh OLFML3 (11715873_a_at) / RFU LOC100653217 /// NTM (11731650_a_at) / Fold change /veh LOC100653217 /// NTM (11731650_a_at) / RFU MAPK11 (11762145_a_at) / Fold change /veh MAPK11 (11762145_a_at) / RFU FIZ1 (11724087_x_at) / Fold change /veh FIZ1 (11724087_x_at) / RFU OASL (11726364_x_at) / Fold change /veh OASL (11726364_x_at) / RFU SOX15 (11748057_x_at) / Fold change /veh SOX15 (11748057_x_at) / RFU CD79A (11719716_a_at) / Fold change /veh CD79A (11719716_a_at) / RFU HIST1H1D (11736915_at) / Fold change /veh HIST1H1D (11736915_at) / RFU CASKIN2 (11723855_a_at) / Fold change /veh CASKIN2 (11723855_a_at) / RFU LOC730098 (11760151_x_at) / Fold change /veh LOC730098 (11760151_x_at) / RFU OR4N2 (11742367_at) / Fold change /veh OR4N2 (11742367_at) / RFU PRRT2 (11749266_a_at) / Fold change /veh PRRT2 (11749266_a_at) / RFU SNX32 (11753110_a_at) / Fold change /veh SNX32 (11753110_a_at) / RFU CDHR5 (11726645_a_at) / Fold change /veh CDHR5 (11726645_a_at) / RFU RCAN1 (11760418_a_at) / Fold change /veh RCAN1 (11760418_a_at) / RFU FAM167A (11723789_a_at) / Fold change /veh FAM167A (11723789_a_at) / RFU FAM26E (11764081_at) / Fold change /veh FAM26E (11764081_at) / RFU ISYNA1 (11749810_s_at) / Fold change /veh ISYNA1 (11749810_s_at) / RFU ACY1 (11761880_at) / Fold change /veh ACY1 (11761880_at) / RFU 11764098_at / Fold change /veh 11764098_at / RFU SAMD14 (11745864_x_at) / Fold change /veh SAMD14 (11745864_x_at) / RFU NPB (11741838_a_at) / Fold change /veh NPB (11741838_a_at) / RFU TMPRSS6 (11731388_a_at) / Fold change /veh TMPRSS6 (11731388_a_at) / RFU KRTAP10-2 (11738614_at) / Fold change /veh KRTAP10-2 (11738614_at) / RFU ARHGAP8 /// PRR5-ARHGAP8 (11727945_x_at) / Fold change /veh ARHGAP8 /// PRR5-ARHGAP8 (11727945_x_at) / RFU KRTAP5-7 /// NADSYN1 (11734609_at) / Fold change /veh KRTAP5-7 /// NADSYN1 (11734609_at) / RFU RASL12 (11751679_a_at) / Fold change /veh RASL12 (11751679_a_at) / RFU CDKN2B (11736163_a_at) / Fold change /veh CDKN2B (11736163_a_at) / RFU PRF1 (11729649_at) / Fold change /veh PRF1 (11729649_at) / RFU, ZNF638 /// ZNF638-IT1 / Fold change vs veh, ZNF638 /// ZNF638-IT1 / RFU, PANK3 / Fold change vs veh, PANK3 / RFU, SH3YL1 / Fold change vs veh, SH3YL1 / RFU, ZEB2 / Fold change vs veh, ZEB2 / RFU, NRIP1 / Fold change vs veh, NRIP1 / RFU, PTTG1IP / Fold change vs veh, PTTG1IP / RFU, CAPN2 / Fold change vs veh, CAPN2 / RFU, MED14 / Fold change vs veh, MED14 / RFU, SNORA58 / Fold change vs veh, SNORA58 / RFU, C1orf63 / Fold change vs veh, C1orf63 / RFU, LRRFIP1 / Fold change vs veh, LRRFIP1 / RFU, NDUFAF7 / Fold change vs veh, NDUFAF7 / RFU, SLC12A2 / Fold change vs veh, SLC12A2 / RFU, IBTK / Fold change vs veh, IBTK / RFU, ESF1 / Fold change vs veh, ESF1 / Fold change vs veh, TMEM50B / RFU, TAOK1 / Fold change vs veh, TAOK1 / RFU, ACBD3 / Fold change vs veh, ACBD3 / RFU, TMA16 / Fold change vs veh, TMA16 / RFU, RWDD3 / Fold change vs veh, RWDD3 / RFU, BCAT1 / Fold change vs veh, BCAT1 / RFU, EDEM3 / Fold change vs veh, EDEM3 / RFU, TMEM33 / Fold change vs veh, TMEM33 / RFU, WDR75 / Fold change vs veh, WDR75 / RFU, AHCTF1 / Fold change vs veh, AHCTF1 / RFU, TFRC / Fold change vs veh, TFRC / RFU, ZDHHC17 / Fold change vs veh, ZDHHC17 / RFU, NOM1 / Fold change vs veh, NOM1 / RFU, ARL8B / Fold change vs veh, ARL8B / RFU, ZBTB11 / Fold change vs veh, ZBTB11 / RFU, TAMM41 / Fold change vs veh, TAMM41 / RFU, KIAA1704 /// LOC100996395 / Fold change vs veh, KIAA1704 /// LOC100996395 / RFU, ING1 / Fold change vs veh, ING1 / RFU, TRMT61B / Fold change vs veh, TRMT61B / RFU, FUBP3 / Fold change vs veh, FUBP3 / RFU, TP53 / Fold change vs veh, TP53 / RFU, TNKS2 / Fold change vs veh, TNKS2 / RFU, ZFP14 / Fold change vs veh, ZFP14 / RFU, ACTR2 / Fold change vs veh, ACTR2 / RFU, PPP3R1 / Fold change vs veh, PPP3R1 / RFU, PIK3R1 / Fold change vs veh, PIK3R1 / RFU, HNRNPA1 / Fold change vs veh, HNRNPA1 / RFU, RNF170 / Fold change vs veh, RNF170 / RFU, ZNF28 / Fold change vs veh, ZNF28 / RFU, RNGTT / Fold change vs veh, RNGTT / RFU, OGT / Fold change vs veh, OGT / RFU, BRD1 / Fold change vs veh, BRD1 / RFU, MARS / Fold change vs veh, MARS / RFU, ZNF655 / Fold change vs veh, ZNF655 / RFU, FAHD1 / Fold change vs veh, FAHD1 / RFU, BDP1 / Fold change vs veh, BDP1 / RFU, LRRCC1 / Fold change vs veh, LRRCC1 / RFU, ARID1A / Fold change vs veh, ARID1A / RFU, ZNF146 / Fold change vs veh, ZNF146 / RFU, ZNF330 / Fold change vs veh, ZNF330 / RFU, GPN3 / Fold change vs veh, GPN3 / RFU, C9orf123 / Fold change vs veh, C9orf123 / RFU, N4BP2L2 / Fold change vs veh, N4BP2L2 / RFU, ARFIP1 / Fold change vs veh, ARFIP1 / RFU, FAM179B / Fold change vs veh, FAM179B / RFU, BCL10 / Fold change vs veh, BCL10 / RFU, UHRF1BP1L / Fold change vs veh, UHRF1BP1L / RFU, BET1 / Fold change vs veh, BET1 / RFU, CNOT2 / Fold change vs veh, CNOT2 / RFU, ZNF268 / Fold change vs veh, ZNF268 / Fold change vs veh, ZNF507 / RFU, DGCR2 / Fold change vs veh, DGCR2 / RFU, WDSUB1 / Fold change vs veh, WDSUB1 / Fold change vs veh, HSP90B1 /// MIR3652 / RFU, ADSS / Fold change vs veh, ADSS / RFU, GK / Fold change vs veh, GK / RFU, ZNF148 / Fold change vs veh, ZNF148 / RFU, TAF9 / Fold change vs veh, TAF9 / RFU, SLC1A5 / Fold change vs veh, SLC1A5 / RFU, SLMO2 / Fold change vs veh, SLMO2 / RFU, ABCC4 / Fold change vs veh, ABCC4 / RFU, LOC101060439 /// RAP1B / Fold change vs veh, LOC101060439 /// RAP1B / RFU, RFX7 / Fold change vs veh, RFX7 / RFU, GTPBP10 / Fold change vs veh, GTPBP10 / RFU, CNEP1R1 / Fold change vs veh, CNEP1R1 / RFU, BIVM-ERCC5 /// ERCC5 / Fold change vs veh, BIVM-ERCC5 /// ERCC5 / RFU, ILF3 / Fold change vs veh, ILF3 / RFU 11762660_at / Fold change /veh 11762660_at / RFU VCAN (11757783_s_at) / Fold change /veh VCAN (11757783_s_at) / RFU DDX43 (11728927_at) / Fold change /veh DDX43 (11728927_at) / RFU KRT8 (11758188_x_at) / Fold change /veh KRT8 (11758188_x_at) / RFU NKD1 (11759106_at) / Fold change /veh NKD1 (11759106_at) / RFU SRD5A1 (11742802_a_at) / Fold change /veh SRD5A1 (11742802_a_at) / RFU TPSAB1 /// TPSB2 (11721975_s_at) / Fold change /veh TPSAB1 /// TPSB2 (11721975_s_at) / RFU GSTM3 (11746129_a_at) / Fold change /veh GSTM3 (11746129_a_at) / RFU IL23R (11737362_x_at) / Fold change /veh IL23R (11737362_x_at) / RFU TMEM51 (11727254_a_at) / Fold change /veh TMEM51 (11727254_a_at) / RFU PIWIL2 (11732686_x_at) / Fold change /veh PIWIL2 (11732686_x_at) / RFU ORM1 (11744905_x_at) / Fold change /veh ORM1 (11744905_x_at) / RFU CCDC152 (11743942_at) / Fold change /veh CCDC152 (11743942_at) / RFU ECM1 (11717891_a_at) / Fold change /veh ECM1 (11717891_a_at) / RFU IL23R (11748794_a_at) / Fold change /veh IL23R (11748794_a_at) / RFU TNFAIP8L3 (11732012_x_at) / Fold change /veh TNFAIP8L3 (11732012_x_at) / RFU MBOAT4 (11741988_at) / Fold change /veh MBOAT4 (11741988_at) / RFU 11764193_at / Fold change /veh 11764193_at / RFU TMEM53 (11763286_at) / Fold change /veh TMEM53 (11763286_at) / RFU MAGEB2 (11727129_at) / Fold change /veh MAGEB2 (11727129_at) / RFU TMEM200A (11744735_a_at) / Fold change /veh TMEM200A (11744735_a_at) / RFU CCDC152 (11751479_a_at) / Fold change /veh CCDC152 (11751479_a_at) / RFU FAM211A (11726209_a_at) / Fold change /veh FAM211A (11726209_a_at) / RFU RGS16 (11746705_a_at) / Fold change /veh RGS16 (11746705_a_at) / RFU VCAN (11755009_s_at) / Fold change /veh VCAN (11755009_s_at) / RFU RHOB (11743442_s_at) / Fold change /veh RHOB (11743442_s_at) / RFU RGS16 (11720943_a_at) / Fold change /veh RGS16 (11720943_a_at) / RFU RGS16 (11720944_at) / Fold change /veh RGS16 (11720944_at) / RFU, VPS4B / Fold change vs veh, VPS4B / RFU, CREB1 / Fold change vs veh, CREB1 / RFU, DNAJC13 / Fold change vs veh, DNAJC13 / RFU, GNAQ / Fold change vs veh, GNAQ / RFU, CDK5R1 / Fold change vs veh, CDK5R1 / RFU, ZRANB3 / Fold change vs veh, ZRANB3 / RFU, CUL4A / Fold change vs veh, CUL4A / RFU, CCNY / Fold change vs veh, CCNY / RFU, UFL1 / Fold change vs veh, UFL1 / RFU, COG3 / Fold change vs veh, COG3 / RFU, DIAPH2 / Fold change vs veh, DIAPH2 / RFU, SKA2 / Fold change vs veh, SKA2 / RFU, AFF3 / Fold change vs veh, AFF3 / RFU, LMF1 / Fold change vs veh, LMF1 / RFU, IPO11 / Fold change vs veh, IPO11 / RFU, DFFB / Fold change vs veh, DFFB / RFU, FOXP1 / Fold change vs veh, FOXP1 / RFU, CARD8 / Fold change vs veh, CARD8 / RFU, STRN3 / Fold change vs veh, STRN3 / RFU, ADK / Fold change vs veh, ADK / RFU, RASSF2 / Fold change vs veh, RASSF2 / RFU, WIPF1 / Fold change vs veh, WIPF1 / RFU, LARP1B / Fold change vs veh, LARP1B / RFU, RASA1 / Fold change vs veh, RASA1 / RFU, RB1 / Fold change vs veh, RB1 / RFU, PPFIA1 / Fold change vs veh, PPFIA1 / RFU, MAT2A / Fold change vs veh, MAT2A / RFU, CCT5 / Fold change vs veh, CCT5 / RFU, WDR92 / Fold change vs veh, WDR92 / RFU, CUX1 / Fold change vs veh, CUX1 / RFU, TTC7A / Fold change vs veh, TTC7A / RFU, TMEM135 / Fold change vs veh, TMEM135 / RFU, DEPTOR / Fold change vs veh, DEPTOR / RFU, CPM / Fold change vs veh, CPM / RFU, DNAJB6 / Fold change vs veh, DNAJB6 / RFU, CACNA2D3 / Fold change vs veh, CACNA2D3 / RFU, DTX4 / Fold change vs veh, DTX4 / RFU, TFCP2 / Fold change vs veh, TFCP2 / RFU, GMCL1 /// GMCL1P1 / Fold change vs veh, GMCL1 /// GMCL1P1 / RFU, AEBP2 / Fold change vs veh, AEBP2 / RFU, SNHG1 /// SNORD22 /// SNORD25 /// SNORD26 /// SNORD27 /// SNORD28 /// SNORD29 /// SNORD31 / Fold change vs veh, SNHG1 /// SNORD22 /// SNORD25 /// SNORD26 /// SNORD27 /// SNORD28 /// SNORD29 /// SNORD31 / Fold change (Aza/veh), C12orf56 (ProbeSet 11735607_a_at) / Fold change (ACY-1035/veh), C12orf56 (ProbeSet 11735607_a_at) / Fold change (Aza/veh), FGFR1OP (ProbeSet 11751329_s_at) / Fold change (ACY-1035/veh), FGFR1OP (ProbeSet 11751329_s_at) / Fold change (Aza/veh), VPS36 (ProbeSet 11739960_a_at) / Fold change (ACY-1035/veh), VPS36 (ProbeSet 11739960_a_at) / RFU SYPL1 (11715823_x_at) / Fold change /veh SYPL1 (11715823_x_at) / RFU IGFBP7 (11715501_s_at) / Fold change /veh IGFBP7 (11715501_s_at) / RFU REEP3 (11722064_at) / Fold change /veh REEP3 (11722064_at) / RFU IGLL1 (11728026_x_at) / Fold change /veh IGLL1 (11728026_x_at): dose or concentration left out as unconfirmed
# Conditions: MV-4-11 cells, 48 hours
smiles,measurement,value
Nc1ccc(-c2cccs2)cc1NC(=O)c1ccc2c(c1)cc(C1CC1)n2CCN1CCOCC1 [ACY-1035],Fold change /veh MAPK11 (11762145_a_at),0.89
